According to US6331642A, “Vitamin D3 analogs” (Hoffmann-La Roche Inc., priority 2000, dated 2001):

Assays:
seminal vesicles = assay: Antiandrogenic activity in castrated testosterone stimulated hamsters, seminal vesicles; assay type: in vivo, male Syrian hamsters; conditions: testosterone 20 μg s.c. daily, 14 days; vehicle 36 ± 3; mg ± SEM
Procedure: (§1) 1,25(OH)2 -16-ene-5,6-trans D3 was evaluated for antiandrogenic activity in castrated, testosterone stimulated male Syrian hamsters.
(§2) […] Both compounds were administered in a vehicle of 0.2 ml sesame oil each. Necropsy was performed on day 15. The prostate and seminal vesicles were removed, blotted and weighed. Data were analyzed for statistical significance using the Student's t-test and are expressed as percent inhibition of stimulated response.

ventral prostate = assay: Antiandrogenic activity in castrated testosterone stimulated hamsters, ventral prostate; assay type: in vivo, male Syrian hamsters; conditions: testosterone 20 μg s.c. daily, 14 days; vehicle 12 ± 1
Procedure: as §1, §2

CCC(=O)O[C@H]1CC[C@H]2[C@@H]3CCC4=CC(=O)CC[C@]4(C)[C@H]3CC[C@]12C [Testosterone, testosterone propionate, reference compound]
Seminal vesicles weight (seminal vesicles): 105 ± 6 mg | Ventral prostate weight (ventral prostate): 43 ± 5 mg
